Results on 1 compound are retold here after patent US8530513B1, “Pharmaceutical uses of diterpene excavatolide B from a coral or an analogue thereof” (National Sun Yat-Sen University, priority 2012, dated 2013).

In test [1] the test system is NF-κB. Kind of test: TPA-induced NF-κB phosphorylation in mouse skin, western blot. In kind it is in vivo. The conditions noted are these: topical for 2 h after TPA. The procedure:
(§1) Shaven abdominal skins of female C57BL/6JNarl mice were not treated or topically treated with vehicle (acetone, 200 μl/site) or TPA (10 nmol in 200 μl acetone/site) at indicated time points or treated first with TPA for 10 min, then with the indicated concentrations of BrD1 at the indicated time points. Abdominal skin samples were collected, homogenated and lysed to prepare total proteins. Protein samples were subsequently resolved by SDS-PAGE using a gradient gel. The resolved proteins were transferred to a PVDF Immobilon-P membrane (Millipore, Bedford, Calif.), and the membrane was blocked with 5% non-fat dry milk in PBST buffer (phosphate-buffered saline (PBS) containing 0.1% Tween 20) for 60 minutes at room temperature. The membranes were incubated overnight at 4° C. with commercially available antibodies (1:1000 dilutions). Loading of equal amounts of protein was assessed using mouse β-actin. The blots were rinsed three times with PBST buffer for 5 minutes. Washed blots were incubated with HRP-conjugated secondary antibody (1:100,000 dilution), then washed again three times with PBST buffer. […] Quantification of bands was performed using Image J software.
(§2) We therefore evaluated whether BrD1 could interfere with TPA-induced activation of Akt and Erk in inflamed skin. […] We thus determined the phosphorylation level of Akt, Erk, NF-κB and IκBα in skins subjected to different treatments. […]

The test system of test [2] is IL-6. Briefly: LPS-induced IL-6 expression in mouse bone marrow-derived dendritic cells, ELISA. The settings on record: for IL-6 expression in LPS-stimulated dendritic cells: LPS 100 ng/ml plus BrD1 at different concentrations, 24 h. Type of test: cell-based. From the text: (§3) For mouse bone marrow-derived DCs (BMDCs), five to six-week-old female C57BL/6JNarl mice were purchased from the National Laboratory Animal Center, Taiwan and kept under SPF conditions. BMDCs were generated from bone marrow cells of C57BL/6 mice as described previously (Yin S Y, Wang W H, Wang B X, Aravindaram K, Hwang P I, Wu H M, Yang N S. BMC genomics 2010, 11:612). In brief, bone marrow was isolated from femurs and tibiae which were then flushed with RPMI-1640 medium using a syringe with a 0.45-mm needle on Day 0. Red blood cells in suspension were lysed for […] with ACK lysing buffer (150 mM NH4Cl, 1.0 mM KHCO3, 0.1 mM EDTA). Bone marrow cells were suspended at a density of 1×10^7 cells/30 ml in RPMI-1640 containing 10% FBS, 2 mM L-glutamine, 1% of nonessential amino acids, 100 U/mL penicillin and 100 μg/mL streptomycin supplemented with 20 ng/mL of mGM-CSF in 15-cm dishes at 37° C. with 5% CO2. On day 2, two-thirds of the medium was removed and 30 mL fresh medium with mGM-CSF was added to the cells. On day 5, culture plates were gently swirled and the floating and loosely adherent cells were discarded. Aliquots of 75% culture media were replenished with 20 ng/mL mGM-CSF and 20 ng/mL mIL-4. On day 7, mouse BMDCs (95% pure CD11b and MHC II) were harvested and incubated in RPMI 1640 medium containing 1 mM sodium pyruvate, 0.1 mM nonessential amino acids, 100 U/ml penicillin, 100 μg/ml streptomycin, and supplemented with 10% fetal bovine serum (Invitrogen, Carlsbad, Calif.) for 24 h at 37° C. with or without test chemicals in the presence or absence of LPS (100 ng/ml).
BMDCs were treated with or without test chemicals in the presence or absence of LPS (100 ng/ml) for 24 h at 37° C. Aliquots of supernatants from DC cultures were assayed for IL-6 and TNF-α using commercial ELISA kits (R&D Systems, Minneapolis, Minn.) following the manufacturer's recommendations.
Several studies have reported that the secretion of specific cytokines, including IL-1β, TNF-α and IL-6 by keratinocytes and various immune cells is involved in cutaneous inflammation (Nestle F O, Di Meglio P, Qin J Z, Nickoloff B J. Nature reviews Immunology 2009, 9:679-691; De Vry C G, Valdez M, Lazarov M, Muhr E, Buelow R, Fong T, Iyer S. J Invest Dermatol 2005, 125:473-481; Cumberbatch M, Dearman R J, Kimber I. Immunology 1996, 87:513-518). In order to investigate the anti-inflammatory effect of BrD1 on cytokine expression, mouse bone marrow-derived dendritic cells were used to evaluate the inhibitory effect of BrD1 on LPS-induced expressions of TNF-α and IL-6. In our time-course study for expression of TNF-α and IL-6, after LPS stimulation, a high expression of TNF-α and IL-6 was maintained at 24 h (FIG. 6A). We therefore chose 24 h as the time point at which to assess the expression of TNF-α and IL-6.

For test [3], the system named is Erk1/2. Kind of test: TPA-induced Erk phosphorylation in mouse skin, western blot. In kind it is in vivo. The conditions noted are these: topical for 2 h after TPA. The procedure: as §1, §2
Test [4] has as its system TNF-α. Kind of test: LPS-induced TNF-α expression in mouse bone marrow-derived dendritic cells, ELISA. In kind it is cell-based. The settings on record: LPS 100 ng/ml plus BrD1 at different concentrations, 24 h.
From the text: as §3, with “On day 7, mouse BMDCs (95% pure CD11b and MHC II) were harvested and incubated in RPMI 1640 medium containing 1 mM sodium pyruvate, 0.1 mM nonessential amino acids, 100 U/ml penicillin, 100 μg/ml streptomycin, and supplemented with 10% fetal bovine serum (Invitrogen, Carlsbad, Calif.) for 24 h at 37° C. with or without test chemicals in the presence or absence of LPS (100 ng/ml).” left out

In test [5] the test system is MMP-9. Briefly: TPA-induced MMP-9 protein expression in mouse skin, western blot. In kind it is in vivo. The settings on record: for TPA-induced MMP-9 protein expression (in words): topical after TPA, 24 h, indicated concentrations. The procedure: Shaven abdominal skins of female C57BL/6JNarl mice were not treated or topically treated with vehicle (acetone, 200 μl/site) or TPA (10 nmol in 200 μl acetone/site) at indicated time points or treated first with TPA for 10 min, then with the indicated concentrations of BrD1 at the indicated time points. Abdominal skin samples were collected, homogenated and lysed to prepare total proteins. Protein samples were subsequently resolved by SDS-PAGE using a gradient gel. The resolved proteins were transferred to a PVDF Immobilon-P membrane (Millipore, Bedford, Calif.), and the membrane was blocked with 5% non-fat dry milk in PBST buffer (phosphate-buffered saline (PBS) containing 0.1% Tween 20) for 60 minutes at room temperature. The membranes were incubated overnight at 4° C. with commercially available antibodies (1:1000 dilutions). Loading of equal amounts of protein was assessed using mouse β-actin. The blots were rinsed three times with PBST buffer for 5 minutes. Washed blots were incubated with HRP-conjugated secondary antibody (1:100,000 dilution), then washed again three times with PBST buffer. The transferred proteins were visualized with an enhanced chemiluminescence (ECL) detection kit (Amersham Pharmacia Biotech, Buckinghamshire, UK). Quantification of bands was performed using Image J software.
Matrix metalloproteinases (MMPs) play a crucial role in many physiological and pathological processes through remodeling extracellular matrix tissues (Stamenkovic I. J Pathol 2003, 200:448-464). Matrix metalloproteinase-9 (MMP-9), a gelatinase which has a key role in inflammatory response, is activated in skin during tissue injury (Shakarjian M P, Bhatt P, Gordon M K, Chang Y C, Casbohm S L, Rudge T L, Kiser R C, Sabourin C L, Casillas R P, Ohman-Strickland P, Riley D J, Gerecke D R. J Appl Toxicol 2006, 26:239-246). In order to evaluate the anti-inflammatory effect of BrD1 on MMP-9 activation in TPA-inflamed skin, BrD1 was topically applied after TPA treatment for 24 h. […] Inhibiton of TPA-inducedMMP-9 expression by BrD1 treatment could also be readily observed at the mRNA level.

Molecules are shown by their SMILES.

Consider `CCCC(=O)O[C@H]1C/C(C)=C\[C@@H]2OC(=O)[C@]3(C)O[C@]23[C@@H](OC(C)=O)[C@H]2[C@@H](C)[C@@H](O)C[C@H](OC(C)=O)[C@]2(C)[C@H]1OC(C)=O` [BrD1, excavatolide B], for which the “phosphorylation of NF-κB” value is reported as “effectively inhibited the phoshporylation of NF-κB” in test [1] and “effectively inhibits the phoshporylation of NF-κB” in test [1] (listed as excavatolide B). Besides, the “inhibition of LPS-induced IL-6 expression (structure-activity relationship)” value in test [2] (DCs co-treated with LPS and BrDs at 20 μM) was “significantly inhibited the expression of cytokine IL-6”. In addition, the “IL-6 expression in LPS-stimulated dendritic cells” value in test [2] was “strongly inhibited IL-6 expression”; in test [2] (listed as Excavatolide B), “strongly inhibits IL-6 expression”. Moreover, in test [3], the “TPA-induced Erk phosphorylation” value is recorded as “inhibit TPA-induced Erk phosphorylation only slightly”. Besides, the “TNF-α expression in LPS-stimulated dendritic cells” value in test [4] is listed as “inhibited TNF-a expression to a much lesser extent”; in test [4] (listed as Excavatolide B), “inhibits TNF-α expression to a much lesser extent”. In test [5] (1 mg/site/mouse topical, 24 h after TPA), the “inhibition of TPA-induced MMP-9 protein expression” value is reported as ≤ 89%. In addition, the figures for the “TPA-induced MMP-9 protein expression (in words)” value in test [5] and in test [5] (listed as excavatolide B) were “significantly inhibited TPA-induced MMP-9 protein expression in a dose-dependent manner” and “significantly inhibits TPA-induced MMP-9 protein expression in a dose-dependent manner”, respectively.
